Laboratory results as given in patent publication US10179355B2, “Bioremediation enhancing agents and methods of use” (JRW BIOREMEDIATION, LLC, priority 2007, dated 2019).

Columns and labels:
Format in all cases: cell-based, Dehalococcoides and Dehalobacter spp.
[1] = system: dechlorinating bacteria known to convert PCE to ethene; assay: Set B: Erythorbate ML with and without YM2, PCE dechlorination microcosms (kinetics, Relative Rate)
Text: Certain contaminated materials (or sites) may contain indigenous microbial communities that are sufficient for complete bioremediation of contaminants. For such sites, there is no need to add microbes unless the indigenous microbes are genetically deficient in achieving the desired clean-up goals. For those sites that are microbiologically limited, microorganisms may be added to the contaminated materials (or sites). In one embodiment, the inoculum may be a mixed culture of halo-respiring bacteria that have been enriched to reach an optimal cell density. These mixed cultures of halo-respiring bacteria may be typically obtained from sediment samples from rivers, streams or any waterways. More specifically, the inoculum used in the Examples was originated from a Sangamon River sediment sample (Lodge Park, Piatt County, Ill.) See, e.g., Brennan, R. A., Sanford, R. A. and Werth, C. J. (2006). “Biodegradation of Tetrachloroethene by Chitin Fermentation Products in a Continuous Flow Column System.” Journal of Environ. Engr., June 665-673. This culture had grown for several years on PCE, anaerobic basal salts medium, Wolfe's vitamin solution and various electron donors including lactate (1-2 millimolar (mM)), formate (4 mM) and chitin using the Volatile Interface Transfer Apparatus (VITA) reactor system at the University of Illinois. Brennan, R. A., and Sanford, R. A. (2002). “Continuous steady-state method using Tenax for delivering tetrachloroethene to chlororespiring bacteria.” Appl. Environ. Microbiol., 68(3), 1464-1467. […] Using 16S rRNA gene-specific primers, both Dehalococcoides and Dehalobacter spp. were detected. Quantitative real-time PCR has been used to determine that approximately 1.65×10^7 Dehalococcoides gene copies were present per ml of culture.
For purpose of this disclosure, each bottle may be started with a certain amount of PCE. At subsequent times each bottle may be sampled for the degradation daughter products of PCE, namely trichloroethene (TCE), cis-dichloroethene (DCE), vinyl chloride (VC) and ethene, etc. Trans-DCE and 1,1-DCE are also daughter products of PCE, but they may not be detectable under the conditions disclosed here.
The rate of degradation may be determined by calculating the number of pmoles of chloride ions removed from PCE and subsequently from the amounts of the daughter products generated. The calculation may be performed as follows: Chloride (μmoles)=[…]−4×PCE (μmoles)−3×TCE (pmoles)−2×DCE (μmoles)−VC (μmoles)
Next, the dechlorination rate may be determined for each bottle at each time by dividing the Chloride generated by the time (days). The data may be then normalized to the lactate control by taking the ratio of Chloride Rate (pmoles/day) and the Lactate Control Chloride Rate (pmoles/day). This ratio is called Relative Rate and is dimensionless.
As shown in the Examples, a paired t-test has been conducted to calculate the probability that the Relative Rate of one group (i.e. with Nutrient) is greater than the other group (i.e. without Nutrient). The null hypothesis is that the underlying means of the two paired groups are equal. The Probability that one group has higher Relative Rates than the other group is shown in various tables in the Examples.
The following components were used in the system for bioremediating contaminated ground water microcosms in Examples 2-8: • 160 milliliter (ml) stoppered serum bottles • 100 ml of anaerobic culture medium, groundwater containing an excess of bioavailable phosphorus and nitrogen at 0.5 mM Phosphate and 1 mM ammonium degassed with a nitrogen sparge • Nominally 1 gram of limestone • 19.54 micromoles (pmoles) Perchloroethene (PCE) • An excess of various electron donors were utilized • 3 ml of inoculum containing dechlorinating bacteria known to convert PCE to ethene.
The second set of microcosms used Erythorbate ML as the electron donor at 1020 mg/L initial concentration. […]

[2] = system: dechlorinating bacteria known to convert PCE to ethene; assay: Set D: Efficiency by COD Analysis
Text: (§1) Efficiency may be defined as the percent of electron donor utilized for dechlorination, and may be calculated by dividing the pmoles of Chloride ion generated by the pmoles of electron donor consumed as measured by either Volatile Fatty Acid (VFA) analysis (Sets B, C, and G) or Chemical Oxygen Demand (COD) analysis (Set D and E). The Relative Efficiency of the electron donor utilization may be defined as the Efficiency of the Electron Donor divided by the Efficiency of the Lactate Control.
The COD analysis calculates the utilization of electron donor by measuring the starting COD and the final COD taking the difference and converting mg/L to pmoles of electrons. The pmoles of electrons used for dechlorination was determined from the calculated Chloride produced leading to an Efficiency and Relative Efficiency of electron donor utilization as compared to lactate.

[3] = system: dechlorinating bacteria known to convert PCE to ethene; assay: Set G: Efficiency by VFA Analysis
Text: as §1, with “Sets B, C, D, E, and G further contain figures and tables showing results of the characterization of the Efficiency and the Relative Efficiency of electron donor usage. Efficiency may” for “Efficiency may”
The method used to calculate the consumption of the electron donor measured the propionate, acetate and formate levels to calculate the consumption of electron donor over time. The lactate and propionate fermented very rapidly resulting in acetate and formate as the only measurable VFAs.
Set G contained microcosms that tested two different Yeast Metabolites (YM3 and YM4) and a Polysaccharide (PS1) for kinetics and efficiency of electron donor utilization using lactate and molasses as the electron donors. PS1 was also tested as an electron donor by itself.
Lactate at 11.2 mM (1,000 mg/L) and nutrient amendment at 1% of the electron donor levels (˜10 mg/L). Triplicate bottles received 2 micro liters of PCE and 2 ml of inoculum. The bottles were sampled 5 times over a 138 day period.

`CC(O)C(=O)[O-].[Na+]` (stereo not shown) [Lactate Control, sodium lactate] was tested, and the “Cl^− Rate ± s.d.” value ([1]; 0 days) was 0.00 ± 0.00 µmol, the “Cl^− ± s.d.” value ([1]; 0 days) was 0.00 ± 0.00 µmol and the “DCE ± s.d.” value ([1]; 0 days) was 0.00 ± 0.00 µmol. The “Ethene ± s.d.” value ([1]; 0 days) was 0.00 ± 0.00 µmol, the “PCE ± s.d.” value ([1]; 0 days) was 19.54 ± 0.00 µmol and the “TCE ± s.d.” value ([1]; 0 days) was 0.00 ± 0.00 µmol. The “VC ± s.d.” value ([1]; 0 days) was 0.00 ± 0.00 µmol, the “Cl^− Rate ± s.d.” value ([1]; 21 days) was 1.61 ± 0.14 µmol and the “Cl^− ± s.d.” value ([1]; 21 days) was 33.88 ± 2.96 µmol. For the same compound, the “DCE ± s.d.” value ([1]; 21 days) was 0.83 ± 0.07 µmol, the “Ethene ± s.d.” value ([1]; 21 days) was 0.29 ± 0.08 µmol and the “PCE ± s.d.” value ([1]; 21 days) was 7.22 ± 0.85 µmol. The “TCE ± s.d.” value ([1]; 21 days) was 3.15 ± 0.11 µmol, the “VC ± s.d.” value ([1]; 21 days) was 4.28 ± 0.44 µmol and the “Cl^− Rate ± s.d.” value ([1]; 35 days) was 1.11 ± 0.12 µmol. The “Cl^− ± s.d.” value ([1]; 35 days) was 39.00 ± 4.35 µmol, the “DCE ± s.d.” value ([1]; 35 days) was 2.57 ± 0.34 µmol and the “Ethene ± s.d.” value ([1]; 35 days) was 0.53 ± 0.12 µmol. For the same compound, the “PCE ± s.d.” value ([1]; 35 days) was 3.58 ± 0.90 µmol, the “TCE ± s.d.” value ([1]; 35 days) was 3.77 ± 0.18 µmol and the “VC ± s.d.” value ([1]; 35 days) was 8.37 ± 0.37 µmol. For the same compound, the “Cl^− Rate ± s.d.” value ([1]; 49 days) was 1.05 ± 0.04 µmol, the “Cl^− ± s.d.” value ([1]; 49 days) was 51.67 ± 1.97 µmol and the “DCE ± s.d.” value ([1]; 49 days) was 1.31 ± 0.95 µmol. For the same compound, the “Ethene ± s.d.” value ([1]; 49 days) was 1.05 ± 0.22 µmol, the “PCE ± s.d.” value ([1]; 49 days) was 0.04 ± 0.01 µmol and the “TCE ± s.d.” value ([1]; 49 days) was 0.10 ± 0.03 µmol. For the same compound, the “VC ± s.d.” value ([1]; 49 days) was 23.41 ± 0.34 µmol, the “% of e^− used for dechlor.” value [2] was 7% and the Chloride ([2]; Efficiency by COD Analysis) was 64.63 µmol. For the same compound, the “Relative Efficiency” value ([2]; relative to Lactate Control) was 100%, the “efficiency of electron donor utilization for dechlorination (in words)” value ([3]; Set G) was “statistically more efficient an electron donor as compared to PS1 and molasses” and the “Estimated % Efficiency” value ([3]; e^- used dechlorination / e^- used donor) was 5.392%. For the same compound, the “Relative Efficiency” value ([3]; relative to Lactate Control = 100%) was 100%.
